Experimental data published in ChEMBL document CHEMBL1146642, “5-Alkyl-2-[(aryl and alkyloxylcarbonylmethyl)thio]-6-(1-naphthylmethyl) pyrimidin-4(3H)-ones as an unique HIV reverse transcriptase inhibitors of S-DABO series” (Bioorg Med Chem Lett, 2004).
pIC50: −log10 of the molar value.

Assays:
[1] = system: MT4; experiment: Cytotoxic concentration that reduces the MT-4 cell viability by 50%; assay type: functional; conditions: Homo sapiens
[2] = system: MT4; experiment: Concentration required to protect the cell against HIV-2 strain ROD viral cytopathogenicity by 50% in MT-4 cells; assay type: functional, cell-based, Human immunodeficiency virus 2; conditions: Homo sapiens
[3] = system: MT4; experiment: Concentration required to protect the cell against SO561945 viral cytopathogenicity by 50% in MT-4 cells; assay type: functional, cell-based; conditions: Homo sapiens
[4] = system: MT4; experiment: Concentration required to protect the cell against HIV-2 strain ROD viral cytopathogenicity by 50% in MT-4 cells; NA denotes not active; assay type: functional, cell-based, Homo sapiens

| Compound | CC50 [1] [µM] | pIC50 [2] | pIC50 [3] | IC50 [4] |
| --- | --- | --- | --- | --- |
| CC(=O)CSc1nc(O)c(C)c(Cc2cccc3ccccc23)n1 | 85 | ≤ 4.07 | – | – |
| Cc1c(O)nc(SCC(=O)c2ccc(Cl)cc2)nc1Cc1cccc2ccccc12 | ≥ 198 | 4.70 | – | – |
| CCc1c(O)nc(SCC(=O)c2ccc(F)cc2)nc1Cc1cccc2ccccc12 | ≥ 240 | 4.79 | – | – |
| COC(=O)CSc1nc(O)c(C(C)C)c(Cc2cccc3ccccc23)n1 | 179 | < 3.75 | – | – |
| COc1ccc(C(=O)CSc2nc(O)c(C)c(Cc3cccc4ccccc34)n2)cc1 | > 290 | ≤ 6.38 | – | – |
| COC(=O)CSc1nc(O)c(C)c(Cc2cccc3ccccc23)n1 | ≥ 296 | ≤ 3.53 | – | – |
| Cc1ccc(C(=O)CSc2nc(O)c(C(C)C)c(Cc3cccc4ccccc34)n2)cc1 | 225 | ≤ 3.65 | – | – |
| COc1ccc(C(=O)CSc2nc(Cc3cccc4ccccc34)c(C(C)C)c(=O)[nH]2)cc1 | ≥ 203 | 4.87 | – | – |
| CCc1c(O)nc(SCC(=O)c2ccc(Cl)cc2)nc1Cc1cccc2ccccc12 | 56 | ≤ 6.59 | – | – |
| CCOC(=O)CSc1nc(O)c(C)c(Cc2cccc3ccccc23)n1 | ≥ 287 | ≤ 3.53 | – | – |
| Cc1ccc(C(=O)CSc2nc(O)c(C(C)C)c(Cc3cccc4ccccc34)n2)c(C)c1 | 27 | 5.40 | – | – |
| CCc1c(O)nc(SCC(=O)OC)nc1Cc1cccc2ccccc12 | ≥ 196 | ≤ 3.71 | – | – |
| Cc1c(O)nc(SCC(=O)c2ccc(F)cc2)nc1Cc1cccc2ccccc12 | ≥ 275 | ≤ 3.56 | – | – |
| CC(C)c1c(O)nc(SCC(=O)c2ccc(Cl)cc2)nc1Cc1cccc2ccccc12 | > 270 | < 3.57 | – | – |
| CCOC(=O)CSc1nc(O)c(C(C)C)c(Cc2cccc3ccccc23)n1 | 175 | ≤ 4.39 | – | – |
| CCc1c(O)nc(SCC(=O)c2ccc(C)cc2)nc1Cc1cccc2ccccc12 | 6 | ≤ 5.90 | – | – |
| Cc1ccc(C(=O)CSc2nc(O)c(C)c(Cc3cccc4ccccc34)n2)cc1 | ≥ 251 | ≤ 4.87 | ≤ 3.60 | – |
| CC(=O)CSc1nc(O)c(C(C)C)c(Cc2cccc3ccccc23)n1 | 43 | < 4.37 | – | – |
| CC(C)c1c(O)nc(SCC(=O)c2ccc(F)cc2)nc1Cc1cccc2ccccc12 | 186 | ≤ 4.49 | – | – |
| CC(C)c1c(O)nc(SCC(=O)c2ccccc2)nc1Cc1cccc2ccccc12 | 238 | 4.66 | – | – |
| CCc1c(O)nc(SCC(=O)c2ccc(OC)cc2)nc1Cc1cccc2ccccc12 | 178 | ≤ 4.72 | – | – |
| O=c1[nH]cnc2c1ncn2[C@H]1CC[C@@H](CO)O1 [DIDANOSINE] | ≥ 529 | 5.57 | – | – |
| O=C1Nc2ccc(Cl)cc2[C@@](C#CC2CC2)(C(F)(F)F)O1 [EFAVIRENZ] | 80 | – | – | Not Active |
| Cc1c(Sc2ccccc2)n(COCCO)c(=O)[nH]c1=O [HEPT] | 405 | – | – | Not Active |
| Cc1ccnc2c1NC(=O)c1cccnc1N2C1CC1 [NEVIRAPINE] | > 200 | – | – | Not Active |
